Assay results published in PubChem BioAssay (NCI).
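Tested at 5 concentrations; 48 h exposure; 96-well plates; endpoints linearly interpolated, else capped at highest concentration. At the GI50, growth is halved. TGI is the concentration that stops growth completely.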

What was measured:
Assay in all cases: DTP human tumour cell line panel, 48 h; in the data active = GI50 below about 0.43 µM; inactive = the rest
[1] = test system: 786-0 renal
[2] = test system: A549 NSCLC
[3] = test system: ACHN renal
[4] = test system: BT-549 breast
[5] = test system: CAKI-1 renal
[6] = test system: CCRF-CEM leukemia
[7] = test system: COLO 205 colon
[8] = test system: DU-145 prostate
[9] = test system: EKVX NSCLC
[10] = test system: HCT-116 colon
[11] = test system: HCT-15 colon
[12] = test system: HOP-62 NSCLC
[13] = test system: HT29 colon
[14] = test system: IGROV1 ovarian
[15] = test system: K-562 leukemia
[16] = test system: KM12 colon
[17] = test system: LOX IMVI melanoma
[18] = test system: M14 melanoma
[19] = test system: MALME-3M melanoma
[20] = test system: MCF7 breast
[21] = test system: MDA-MB-231 breast
[22] = test system: MDA-MB-435
[23] = test system: MOLT-4 leukemia
[24] = test system: NCI-H23 lung
[25] = test system: NCI-H460 lung
[26] = test system: NCI-H522 lung
[27] = test system: NCI/ADR-RES ovarian
[28] = test system: OVCAR-4 ovarian
[29] = test system: OVCAR-5 ovarian
[30] = test system: OVCAR-8 ovarian
[31] = test system: PC-3 prostate
[32] = test system: RPMI-8226 leukemia
[33] = test system: RXF 393 renal
[34] = test system: SF-268 CNS
[35] = test system: SF-295 CNS
[36] = test system: SK-MEL-2 melanoma
[37] = test system: SK-MEL-28 melanoma
[38] = test system: SK-MEL-5 melanoma
[39] = test system: SK-OV-3 ovarian
[40] = test system: SN12C renal
[41] = test system: SNB-19 CNS
[42] = test system: SR leukemia
[43] = test system: SW-620 colon
[44] = test system: T-47D breast
[45] = test system: TK-10 renal
[46] = test system: U251 CNS
[47] = test system: UACC-62 melanoma
[48] = test system: UO-31 renal

O=C1C(Cl)=C(Nc2cccc(O)c2)C(=O)N1c1ccc(Cl)cc1Cl
inactive: GI50 [1] 32.8 µM | GI50 [2] 46.3 µM | GI50 [3] 30.6 µM | GI50 [4] 13.9 µM | GI50 [5] 12.9 µM | GI50 [6] 17.5 µM | GI50 [7] 28.2 µM | GI50 [8] 23.1 µM | GI50 [9] 57.3 µM | GI50 [10] 24.3 µM | GI50 [11] 29.4 µM | GI50 [12] 32.8 µM | GI50 [13] 35.1 µM | GI50 [14] 22.5 µM | GI50 [15] 22 µM | GI50 [16] 38.8 µM | GI50 [17] 19.3 µM | GI50 [18] 47.6 µM | GI50 [19] 31.6 µM | GI50 [20] 19.8 µM | GI50 [21] 23.3 µM | GI50 [22] 30.7 µM | GI50 [23] 7.32 µM | GI50 [24] 24.9 µM | GI50 [25] 27.5 µM | GI50 [26] 13.8 µM | GI50 [27] 32.2 µM | GI50 [28] 43.2 µM | GI50 [29] 40.2 µM | GI50 [30] 28 µM | GI50 [31] 13.9 µM | GI50 [32] 7.55 µM | GI50 [33] 17 µM | GI50 [34] 28.4 µM | GI50 [35] 27.2 µM | GI50 [36] 35 µM | GI50 [37] 60.9 µM | GI50 [38] 14.7 µM | GI50 [39] 40.4 µM | GI50 [40] 17.1 µM | GI50 [41] 29.9 µM | GI50 [42] 2.76 µM | GI50 [43] 17.3 µM | GI50 [44] 43.6 µM | GI50 [45] > 100 µM | GI50 [46] 19 µM | GI50 [47] 21.4 µM | GI50 [48] 50.7 µM
92 µM: TGI [19]
66.7 µM: TGI [46]
26.9 µM: TGI [42]
64.2 µM: TGI [30]
> 100 µM: TGI [1] | TGI [2] | TGI [3] | TGI [7] | TGI [9] | TGI [11] | TGI [12] | TGI [13] | TGI [16] | TGI [18] | TGI [22] | TGI [25] | TGI [27] | TGI [28] | TGI [29] | TGI [34] | TGI [37] | TGI [39] | TGI [41] | TGI [44] | TGI [45] | TGI [48]
48.3 µM: TGI [17]
97.6 µM: TGI [10]
77.5 µM: TGI [21]
35.9 µM: TGI [40]
46.9 µM: TGI [6]
63.3 µM: TGI [20]
45 µM: TGI [5]
54.6 µM: TGI [4]
57.7 µM: TGI [47]
88.7 µM: TGI [24]
33.1 µM: TGI [23]
32.2 µM: TGI [38]
38.3 µM: TGI [43]
90.5 µM: TGI [8]
67.3 µM: TGI [33]
32.9 µM: TGI [26]
51.5 µM: TGI [14]
38.2 µM: TGI [31]
72.5 µM: TGI [36]
58.1 µM: TGI [15]
86 µM: TGI [35]
30.7 µM: TGI [32]
